From US9796662B2 (priority 2010, dated 2017)

C[N+](C)(C)CCOC(=O)CCCCCCC/C=C/CCCCCCCC(=O)OCC[N+](C)(C)C [Mix-16, C18 diMEA DiQuat]
Emulsion stability, mL separation, 1 h, Adjuvant: 0.25 mL | Emulsion stability, mL separation, 1 h, Anionic: 0 mL | Emulsion stability, mL separation, 24 h, Adjuvant: 0.25 mL | Emulsion stability, mL separation, 24 h, Anionic: 0 mL

C=CCCCCCCCC(=O)OCC[N+](C)(C)C [C10-7, C10 DMEA Ester Quat]
Emulsion stability, mL separation, 1 h, Adjuvant: 0 mL | Emulsion stability, mL separation, 1 h, Anionic: 0 mL | Emulsion stability, mL separation, 1 h, Nonionic: 0 mL | Emulsion stability, mL separation, 24 h, Adjuvant: 0 mL | Emulsion stability, mL separation, 24 h, Anionic: 0 mL | Emulsion stability, mL separation, 24 h, Nonionic: 0 mL

CC/C=C/CCCCCCCC(=O)OCC[N+](C)(C)C [C12-7, C12 DMEA Ester Quat]
Emulsion stability, mL separation, 1 h, Adjuvant: 0 mL | Emulsion stability, mL separation, 1 h, Anionic: 0 mL | Emulsion stability, mL separation, 1 h, Nonionic: 0 mL | Emulsion stability, mL separation, 24 h, Adjuvant: 0 mL | Emulsion stability, mL separation, 24 h, Anionic: 0 mL | Emulsion stability, mL separation, 24 h, Nonionic: 0 mL
